From PubChem BioAssay (NCI)
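Five concentrations, 48 hours, 96-well plates. GI50 is the concentration that inhibits growth by half. TGI is the concentration that stops growth completely.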

Key:
Assay in all cases: DTP human tumour cell line panel, 48 h
HCC-2998 colon = system: HCC-2998 colon
K-562 leukemia = system: K-562 leukemia
SK-MEL-28 melanoma = system: SK-MEL-28 melanoma
MOLT-4 leukemia = system: MOLT-4 leukemia
SK-MEL-5 melanoma = system: SK-MEL-5 melanoma
SF-295 CNS = system: SF-295 CNS
LOX IMVI melanoma = system: LOX IMVI melanoma
OVCAR-5 ovarian = system: OVCAR-5 ovarian
OVCAR-4 ovarian = system: OVCAR-4 ovarian
NCI-H226 lung = system: NCI-H226 lung

| Compound | TGI (HCC-2998 colon) [µM] | TGI (K-562 leukemia) [µM] | TGI (SK-MEL-28 melanoma) [µM] | TGI (MOLT-4 leukemia) [µM] | TGI (SK-MEL-5 melanoma) [µM] | TGI (SF-295 CNS) [µM] | TGI (LOX IMVI melanoma) [µM] | TGI (OVCAR-5 ovarian) [µM] | TGI (OVCAR-4 ovarian) [µM] | TGI (NCI-H226 lung) [µM] | GI50 (HCC-2998 colon) [µM] | GI50 (K-562 leukemia) [µM] | GI50 (SK-MEL-28 melanoma) [µM] | GI50 (MOLT-4 leukemia) [µM] | GI50 (SK-MEL-5 melanoma) [µM] | GI50 (SF-295 CNS) [µM] | GI50 (OVCAR-5 ovarian) [µM] | GI50 (OVCAR-4 ovarian) [µM] | GI50 (NCI-H226 lung) [µM] | GI50 (LOX IMVI melanoma) [µM] |
| --- | --- | --- | --- | --- | --- | --- | --- | --- | --- | --- | --- | --- | --- | --- | --- | --- | --- | --- | --- | --- |
| CC(=O)Nc1ccc(/C=C/c2ccc(NC(=O)Nc3ccc(/C=C/c4ccc(NC(C)=O)cc4S(=O)(=O)O)c(S(=O)(=O)O)c3)cc2S(=O)(=O)O)c(S(=O)(=O)O)c1 | > 100 | > 100 | > 100 | > 100 | > 100 | > 100 | > 100 | > 100 | > 100 | > 100 | – | – | – | – | – | – | – | – | – | – |
| COCc1nc2c(OC)c(-c3nc4nc(N5CCN(C)CC5)ccc4[nH]3)cc(OC)c2n1C | 32.4 | > 100 | 56 | 49.6 | – | 92.9 | 39.5 | > 100 | > 100 | 87.4 | – | – | – | – | – | – | – | – | – | – |
| CC1CC2=C(S(=O)(=O)c3ccccc3)CC(S(=O)(=O)c3ccccc3)(S(=O)(=O)c3ccccc3)CC21 (configuration not stated) | > 100 | > 100 | > 100 | > 100 | > 100 | > 100 | > 100 | > 100 | > 100 | > 100 | – | – | – | – | – | – | – | – | – | – |
| COCCCNc1nc(N)c(C#N)c(C#N)c1C#N | > 10 | > 10 | > 10 | > 10 | > 10 | > 10 | > 10 | > 10 | > 10 | > 10 | – | – | – | – | – | – | – | – | – | – |
| CCOC(=O)c1ccc(N[C@@H]2c3cc4c(cc3C(c3cc(OC)c(O)c(OC)c3)[C@H]3C(=O)OCC32)OCO4)cc1O (some centres not stated) | 3.97 | – | 42 | 1.21 | 3.02 | 2.96 | 0.442 | > 100 | > 100 | 2.39 | – | – | – | – | – | – | – | – | – | – |
| CC1CCCCNC1=S (configuration not stated) | – | > 10 | > 10 | > 10 | > 10 | > 10 | > 10 | > 10 | – | > 10 | – | – | – | – | – | – | – | – | – | – |
| COc1cc2oc(-c3ccc(O)cc3)c(OC)c(=O)c2c(O)c1OC | 72.8 | > 100 | > 100 | > 100 | > 100 | > 100 | – | > 100 | > 100 | > 100 | 18.8 | 42.8 | > 100 | 27.4 | 70.1 | 36.1 | > 100 | 99.2 | 45.7 | – |
| CCOC(=O)CNC(=O)N(CC)C12CC3CC(CC(C3)C1)C2 | 402 | 409 | 560 | 322 | 195 | 304 | 252 | 369 | 536 | 371 | – | – | – | – | – | – | – | – | – | – |
| COc1ccccc1CNCCCN1C(=O)c2ccc3c4c(ccc(c24)C1=O)C(=O)N(CCCNCCNCCCN)C3=O | 10.3 | 16.7 | 9.66 | 5.81 | 3.02 | 12.6 | 10.4 | 19.8 | 1.68 | 21.3 | 2.25 | 3.24 | 3.03 | 1.73 | 1.57 | 2.77 | 5.24 | 0.466 | 2.99 | 2.1 |
| CCOC(=O)Cn1c(=O)ccn(COCCO)c1=O | > 100 | > 100 | > 100 | > 100 | > 100 | – | > 100 | > 100 | > 100 | – | – | – | – | – | – | – | – | – | – | – |
| COc1ccc(S(=O)(=O)c2ccccc2[N+](=O)[O-])cc1 | > 100 | > 100 | > 100 | > 100 | > 100 | > 100 | > 100 | > 100 | > 100 | > 100 | – | – | – | – | – | – | – | – | – | – |
| C/C(=N/NC(N)=S)c1ccc[nH]1 | > 100 | > 100 | > 100 | > 100 | > 100 | > 100 | > 100 | > 100 | > 100 | > 100 | – | – | – | – | – | – | – | – | – | – |
| CCC(=O)Oc1ccc2c(c1)c(=O)c1c(NCCCN(C)C)ccc3nnn2c31 | 15 | > 100 | 23.9 | 5.69 | 10.3 | 17.3 | 2.88 | 22.6 | 3.31 | 11.8 | – | – | – | – | – | – | – | – | – | – |
